Measurements from US20020045566A1, “Selective maxi-K potassium channel openers functional under conditions of high intracellular calcium concentration, methods and uses thereof” (priority 2000, published 2002).

How the values were obtained:
[1] = molecular target: T1, human brain maxi-K channel α-subunit (hSlo) (Homo sapiens, UniProt Q12791); experiment: whole-cell patch-clamp of hSlo-mediated outward currents in transfected HEK-293 cells; format: cell-based; conditions: for effect on hSlo-mediated current amplitudes: BMS-A at 1 μM
T1 construct: expressed in transfected cells; host or cells: HEK-293, stably transfected (pcDNA3, G418 selection)
Description: HEK-293 cells were transfected with 1-2 μg of pcDNA3 expression plasmid containing hSlo α-subunit cDNA (S. I. Dworetzky et al., 1994, Brain Res. Mol. Brain Res., 27:189-193) using lipofectamine (Gibco) according to the manufacturer's protocol. Cells stably transfected with hSlo were selected in medium supplemented with 0.5 mg/ml Geneticin (G418; Sigma). Transfected HEK-293 cells were grown in Minimum Essential Medium (MEM; Gibco) supplemented with 10% fetal calf serum and G418 at 37° C. in a humidified atmosphere of 5% CO2 and 95% […]. Cells were plated on fibronectin-coated glass cover slips in 35 mm culture dishes.
Outward K^+-mediated currents were examined using standard whole-cell patch-clamp techniques (P. O. Hamill et al., 1981, Pflugers Arch., 391:85-100). Records were filtered at 2 kHz prior to digitization at 10 or 20 kHz. The bathing solution contained the following components: NaCl, 145 mM; KCl, 3 mM; CaCl2, 2.5 mM; MgCl2 1 mM; HEPES, 10 mM; pH 7.4. The recording pipettes were pulled from thick-walled borosilicate glass (2-4 Mω in bathing solution), fire polished and filled with a solution containing: KCl 140 mM; MOPS, 20 mM; EGTA, 1.0 mM; pH 7.2, with CaCl2 adjusted to produce the required [Ca^2+]free (determined using the EQCAL program (Biosoft, Cambridge) incorporating the methods of A. Fabiato and F. Fabiato, 1995, J. Physiol., Paris. 75:463-505.
Stimulus generation and data acquisition were controlled by either an Axopatch 200 amplifier or an EPC 9 amplifier, and the Pulse program suite. Data were stored and analyzed off-line. The cell holding potential was −100 mV for experiments with 2.5 μM [Ca^2+]i, and −80 or […] for the remaining Ca^2+ concentrations (1 μM, 250 nM and 50 nM). A series of 10 mV depolarizing voltage steps (100 to 200 ms) appropriate to the [Ca^2+]i was applied to evoke a family of outward currents. Series resistance was ≦6Mω before 80% compensation. Currents were measured at steady state near the end of the voltage pulse.
Using the whole-cell voltage-clamp technique (R. Penner, 1995, “A Practical Guide to Patch Clamping”; In: Single Channel Recording, 2nd Edition, (Eds. B. Sakmann and E. Neher), Plenum Press, New York, pp. 3-30), hSlo-mediated outward currents were recorded with pipettes containing different concentrations of Ca^2+ (i.e., [Ca^2+]free=50 nM, 1 μM or 2.5 μM). Clamped cells were exposed to 5 μM of the fluoro-oxindole opener compound BMS-204352, or the chloro-oxindole opener compound BMS-225113, as described in Examples 1.
For outside-out and whole cell patch analyses, the solutions used are normal extracellular Na^+ solution containing (in mM): NaCl, 145; KCl, 3; CaCl2, 2.5; MgCl2, 1; HEPES, 10; ±glucose, 10; pH 7.4. Intracellular and extracellular medium for inside-out patches, or pipette solution for whole-cell patch, comprise (in mM): KCl, 140; MOPS, 20; EGTA, 1.0; pH 7.2 CaCl2 adjusted to produce the required [Ca^2+]free (determined using the EQCAL program; Biosoft, Cambridge). The cell holding potential for whole-cell recordings is −80 or −60 mV and depolarizing voltage steps appropriate to the internal Ca^2+ concentration are applied (at high intracellular Ca^2+ seals become unstable at higher clamp voltages, and are stable at lower voltages for shorter periods).
This example describes experiments that were conducted to determine the effects of intracellular Ca^2+ concentration ([Ca^2+]i) and the use of the BMS-A compound (see U.S. Pat. No. 5,869,509, Example 82), versus a known benzimidazolone compound called NS-1619 [D. Strbaek et al., 1996, Neuropharmacology, 35:903-914 and M. McKay et al., 1997, J. Neurophysiology, 71:1873], on whole-cell currents in HEK-293 cells genetically engineered to express a human brain hSlo α-subunit. For these experiments, the cell holding potential was either −80 or −100 mV and a series of 10 mV depolarizing voltage steps appropriate to the [Ca^2+]i, was applied. […]

cortical infarct volume [2] = experiment: permanent MCA occlusion in SHR rat, MRI; format: in vivo, spontaneously hypertensive rats (SHR); conditions: 0.3 mg/kg bolus IV 2 hours after occlusion onset; at 5.5 and 24 hours after occlusion
[3] = brain penetrance and pharmacokinetics after IV administration in rat; format: in vivo
Excerpt: The ischemic penumbra is an area of low vascular perfusion. For a neuroprotective agent to reach ischemic neurons at therapeutic doses following the onset of a stroke, it should enter the brain at very high levels.

σ1 = molecular target: T2, σ1 (Homo sapiens, UniProt Q99720); experiment: [3H](+)pentazocine binding, PanLabs screen
T2 construct: PanLabs (contract screen)
Excerpt: (§1) BMS-204352 was also examined against a binding screen of over 50 receptors and enzyme systems (PanLabs ProfilingScreen® and DiscoveryScreen®). These systems include representatives of most G-protein coupled receptor families, ligand-gated ion channel families, as well as some voltage-gated ion channel binding sites such as the dihydropyridine receptor of L-type Ca^2+ channels. […] The significance of modest inhibition of σ1 ligand binding is unknown.

[4] = cardiovascular safety in anesthetized and conscious dogs; format: in vivo; conditions: doses at least 3× higher than 1 mg/kg IV
Description: (§2) BMS-204352 has an encouraging preclinical safety profile. […] In single- and multiple-dose studies unaffected by drug at doses at least 3×higher than the highest cytotoxic target organ changes following IV administration for 1 month at doses up to 10 mg/kg/day (rats) and for 10 days at doses up to 20 mg/kg/day (dogs).

cortical infarct volume [5] = experiment: PUM,PIC,TCC model of acute stroke in Wistar normotensive rat; format: in vivo; conditions: administered 2 hours post-occlusion
Description: Permanent focal occlusion of the proximal middle cerebral artery (MCA) is performed using a modified version of the method originally developed by A. Tamura et al. (1981, J. Cerebr. Blood Flow Metab., 1:53-60). In the permanent unilateral MCA, permanent ipsilateral common carotid arteries (CCA) and transient contralateral CCA (PUM,PIC,TCC model), normotensive male Wistar rats are anesthetized with a combination of ketamine (40 mg/kg, i.m.) and xylazine (4.5 mg/kg, i.m.). After exposure of the left MCA via the subtemporal approach, a 2 mm section of the artery is electrocauterized and severed. Within 5 minutes, both CCA are exposed and occluded. […]
The contralateral temporary CCA occlusion reduces collateral flow sufficiently to allow for consistent, large cortical infarcts (S. Brint et al., 1988, Cerebr. Blood Flow Metab., 8:474-485). […] Animals are maintained throughout at 37° C. and monitored by means of a rectal probe. At 24 hours after the occlusion, animals are sacrificed and brains are removed and evaluated by triphenyltetrazolium chloride (TTC) staining to determine the area of infarct. Brain slices are photographed and infarct volumes determined with the assistance of computerized image analysis. Data are analyzed using ANOVAs and appropriate post-hoc tests (Dunnett's).

[6] = cardiovascular safety in rats; format: in vivo; conditions: doses at least 3× higher than the highest neuroprotective dose of 1 mg/kg IV
Description: as §2

teratogenicity in rats = format: in vivo
Description: as §2

[7] = genotoxicity in vitro and in vivo
Description: as §2

[8] = teratogenicity in rabbits; format: in vivo
Description: as §2

dopamine D3 receptor = molecular target: T3, dopamine D3 receptor (Homo sapiens, UniProt P35462); experiment: [3H]spiperone binding, PanLabs screen; conditions: initial test
T3 construct: PanLabs (contract screen)
Excerpt: as §1

[9] = test system: voltage-dependent potassium channels (Kv1.3, Kv1.5, Kv2.1); experiment: ion channel specificity, Kv currents (electrophysiology); format: cell-based
Description: (§3) To determine the specificity of the effects of the opener compounds, including BMS-204352, on maxi-K potassium channels, the compounds were tested against a representative sample of cloned and native ion channels expressed in Xenopus oocytes and clonal cell lines and were assayed using standard electrophysiological techniques readily known to and practiced by those having skill in the art. These included voltage-dependent potassium channels (Kv1.3, Kv1.5, Kv2.1), Ca^2+-activated chloride (Cl^−) channels (native oocyte channels), the cystic fibrosis transmembrane conductance regulator Cl^− channel (CFTR) and Ca^2+ currents (native GH3 cell Ca^2+ current).

[10] = test system: Ca^2+-activated chloride (Cl^−) channels (native oocyte channels); experiment: ion channel specificity, Cl- currents (electrophysiology); format: cell-based, Xenopus; conditions: native oocyte Ca2+-activated Cl- channels
Description: as §3

[11] = test system: native GH3 cell Ca^2+ current; experiment: ion channel specificity, native Ca2+ currents; format: cell-based; conditions: at 1 and 10 μM; similar reductions due to current rundown in control cells
Description: as §3

cortical infarct volume [12] = experiment: permanent MCA occlusion in SHR rat; format: in vivo, spontaneously hypertensive rats (SHR); conditions: administered 2 hours following occlusion onset, doses neuroprotective at earlier time points

T1 sequence (Q12791 1-1178 isoform Q12791-5): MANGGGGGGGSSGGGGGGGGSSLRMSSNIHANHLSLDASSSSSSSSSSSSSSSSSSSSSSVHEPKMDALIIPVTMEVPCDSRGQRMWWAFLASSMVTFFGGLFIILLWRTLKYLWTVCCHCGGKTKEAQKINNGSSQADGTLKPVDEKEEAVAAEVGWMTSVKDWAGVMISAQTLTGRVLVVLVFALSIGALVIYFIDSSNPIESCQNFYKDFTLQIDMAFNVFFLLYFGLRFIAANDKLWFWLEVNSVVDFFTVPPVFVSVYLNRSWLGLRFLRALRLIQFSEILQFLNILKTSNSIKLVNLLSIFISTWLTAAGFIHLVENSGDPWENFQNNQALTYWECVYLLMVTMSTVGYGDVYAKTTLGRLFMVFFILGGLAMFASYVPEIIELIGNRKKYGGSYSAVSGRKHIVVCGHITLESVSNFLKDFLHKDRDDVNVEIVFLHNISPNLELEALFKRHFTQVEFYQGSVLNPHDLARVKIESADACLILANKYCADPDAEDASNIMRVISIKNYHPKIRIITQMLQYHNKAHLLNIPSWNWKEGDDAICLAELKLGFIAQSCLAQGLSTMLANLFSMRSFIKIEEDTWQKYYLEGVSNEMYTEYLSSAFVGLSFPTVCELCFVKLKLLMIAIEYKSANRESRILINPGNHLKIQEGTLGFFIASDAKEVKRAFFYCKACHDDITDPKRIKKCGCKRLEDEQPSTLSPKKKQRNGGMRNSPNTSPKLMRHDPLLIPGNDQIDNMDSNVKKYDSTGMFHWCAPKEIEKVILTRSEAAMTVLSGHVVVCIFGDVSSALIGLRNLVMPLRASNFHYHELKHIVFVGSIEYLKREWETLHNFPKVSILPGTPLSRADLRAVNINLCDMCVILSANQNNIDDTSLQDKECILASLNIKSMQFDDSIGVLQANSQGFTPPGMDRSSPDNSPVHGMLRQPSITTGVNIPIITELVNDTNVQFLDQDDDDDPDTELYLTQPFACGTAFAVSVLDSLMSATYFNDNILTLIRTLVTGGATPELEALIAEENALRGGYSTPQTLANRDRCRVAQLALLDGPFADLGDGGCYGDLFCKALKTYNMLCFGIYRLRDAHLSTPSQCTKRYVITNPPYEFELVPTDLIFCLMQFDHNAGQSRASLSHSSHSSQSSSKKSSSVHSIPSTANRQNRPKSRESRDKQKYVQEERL
T2 sequence (Q99720 whole entry): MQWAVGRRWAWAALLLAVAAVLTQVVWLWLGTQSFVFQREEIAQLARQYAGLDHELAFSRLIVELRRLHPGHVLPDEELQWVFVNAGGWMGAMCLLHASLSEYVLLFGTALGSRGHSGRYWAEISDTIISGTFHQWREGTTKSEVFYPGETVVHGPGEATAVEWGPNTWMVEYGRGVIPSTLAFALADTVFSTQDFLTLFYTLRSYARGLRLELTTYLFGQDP
T3 sequence (P35462 whole entry): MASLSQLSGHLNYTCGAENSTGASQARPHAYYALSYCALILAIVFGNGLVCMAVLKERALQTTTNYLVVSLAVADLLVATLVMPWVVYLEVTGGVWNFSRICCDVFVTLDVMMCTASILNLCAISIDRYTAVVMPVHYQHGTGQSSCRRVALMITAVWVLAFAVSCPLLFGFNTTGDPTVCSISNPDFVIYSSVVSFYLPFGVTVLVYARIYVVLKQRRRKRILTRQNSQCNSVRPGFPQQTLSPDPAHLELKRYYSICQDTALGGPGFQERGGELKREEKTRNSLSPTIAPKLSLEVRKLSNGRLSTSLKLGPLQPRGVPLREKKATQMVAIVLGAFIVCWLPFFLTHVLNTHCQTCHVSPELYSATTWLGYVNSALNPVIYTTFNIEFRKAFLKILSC

COc1ccc(Cl)cc1C1(Cl)C(=O)Nc2cc(C(F)(F)F)ccc21 (racemic) [BMS-225113, (±)-(5-chloro-2-methoxyphenyl)1,3-dihydro-3-chloro-6-(trifluoromethyl)-2H-indol-2-one]
effect on hSlo-mediated currents ([1]; compound 5 μM, [Ca2+]i 50 nM, 250 nM, 1 μM or 2.5 μM): significant increases only at the highest concentrations of Ca^2+ (1 μM and 2.5 μM) | effect on maxi-K currents ([1]; compound 10 μM, [Ca2+]i 250 nM, 1.0 μM, 2.5 μM (FIG. 3A)): greater increases in maxi-K currents under conditions of higher [Ca^2+]i

COc1ccc(Cl)cc1C1(F)C(=O)Nc2cc(C(F)(F)F)ccc21 (racemic) [Compound 1, (±)-(5-Chloro-2-methoxyphenyl)-1,3-dihydro-3-fluoro-6-(trifluoromethyl)-2H-indol-2-one]
cortical infarct volume (MRI) (cortical infarct volume [2]): significant reduction in cortical infarct volume

COc1ccc(Cl)cc1[C@]1(F)C(=O)Nc2cc(C(F)(F)F)ccc21 [BMS-204352, (3S)-(+)-(5-Chloro-2-methoxyphenyl)-1,3-dihydro-3-fluoro-6-(trifluoromethyl)-2H-indol-2-one]
Tmax ([3]; 5 mg/kg, rat brain, IV administration): 15 min | Cmax ([3]; brain, rat, 5 mg/kg IV bolus dose): > 10000 ng/g | brain half life ([3]; rat, IV): 114 min | plasma half life ([3]; rat, IV): 96 min | ratio of brain to plasma of the total compound detected ([3]; rat, over an 8 hour period): 9.6 | inhibition at 10 µM (σ1): 54% | heart rate and mean arterial blood pressure [4]: unaffected | maximum reduction of cortical infarct volume (cortical infarct volume [5]): 41% | typical reductions of cortical infarct volume (cortical infarct volume [5]): 20-30% | heart rate and mean arterial blood pressure [6]: unaffected | teratogenicity (teratogenicity in rats): not teratogenic | genotoxicity [7]: not genotoxic | teratogenicity [8]: not teratogenic | inhibition at 10 µM (dopamine D3 receptor): 74% | effect on Kv currents [9]: no significant effect | effect on Cl- currents [10]: no significant effect | reduction of native Ca2+ current [11]: 15-16%

O=c1oc(-c2ccc(C(F)(F)F)cc2)nn1Cc1cc(Cl)ccc1O [BMS-A, 3-[(5-chloro-2-hydroxyphenyl)methyl]-5-[4-(trifluoromethyl)phenyl]-1,3,4-oxadiazol-2-(3H)-one]
effect on hSlo-mediated current amplitudes ([1]; [Ca2+]i 50 nM): decreased current amplitudes over a wide range of voltages | effect on hSlo-mediated current amplitudes ([1]; [Ca2+]i 2.5 μM): increased hSlo-mediated current amplitudes at the highest voltages

CCc1cccc(N(C)C(N)=Nc2cccc3ccccc23)c1 [CNS-1102]
neuroprotection (cortical infarct volume [12]): ineffective

C[C@]12N[C@H](Cc3ccccc31)c1ccccc12 [MK-801]
neuroprotection (cortical infarct volume [12]): ineffective

O=c1[nH]c2cc(C(F)(F)F)ccc2n1-c1cc(C(F)(F)F)ccc1O [NS-1619, reference compound]
effect on hSlo-mediated current amplitudes ([1]; [Ca2+]i 50 nM): increasing the hS/omediated current amplitudes at upper voltages | effect on hSlo-mediated current amplitudes ([1]; [Ca2+]i 2.5 μM): increasing the hS/omediated current amplitudes at upper voltages
